The text below walks through data of US5011828A, “Immunostimulating guanine derivatives, compositions and methods” (priority 1988, dated 1991).

Series [1] concerns human peripheral blood lymphocytes (sheep red blood cells as antigen). The series is described as follows: Antigen-specific adjuvanticity: direct anti-SRBC plaque forming cells, human system. It counts as cell-based. Here is the method: ^1 Studies were carried in a manner similar to those of Table 1,
except that a human lymphocyte preparation was used.
The results shown in Table 7, below, were obtained similarly to those discussed above, but using human lymphocytes. Some of those studies utilized lymphocytes from more than one individual, and are therefore reported with multiple entries.
Human peripheral blood lymphocytes (PBL) were prepared from normal heparinized venous blood by Ficoll-diatrizoate density gradient centrifugation. PBL were depleted of suppressor T cells bearing the histamine type 2 receptor by adhering them to the surfaces of histamine-rabbit serum albumin-coated plastic petri dishes (Cell-ect No. 2 kit; Seragen, Boston, Mass.) and by recovering the nonadherent cells by panning as described by Wysocki and Sato, Proc. Natl. Acad. Sci. USA, 75:2844 (1978) and modified by Cavagnaro and Osband, Biotechniques, January/February:30 (1983).
The tissue culture medium employed in these studies for human lymphocytes was prepared as follows: One hundred milliliters (ml) contained 87.9 ml RPMI 1640 (Flow Laboratories, Rockville, Md.), 0.1 ml 100×glutamine,1.0 ml of 1.0 M HEPES buffer (Microbilogical Associates, Betheseda, Md.), 1.0 ml of water containing 10^4 U of penicillin G and 10^4 micrograms of streptomycin, and 10 ml of fresh autologous heat-inactivatedplasma. For evaluation of the primary humoral immune response to SRBC, lymphoid cells prepared as above were cultured at a density of 2×10^6 /ml in a volume of 1.0 ml containing 5×10^6 SRBC as antigen (Colorado Serum Co., Denver, Colo.) together with IL-2 (a partially purified preparation of human IL-2 that was free of interferon-gamma activity was obtained from Electro-Nucleonics, Inc., Silver Spring, Md.) and the guanine nucleoside derivative.
(§1) Assay of plaque forming cells (PFC). PFC secreting antibodies against SRBC were evaluated after 4 or 5 days of culture using a modification of the hemolytic plaque assay of Jerne and Nordin, Science, 140:405 (1963). The cells were brought up in complete medium before plaquing; they were plaqued in standard low Mr agarose (Bio-Rad Laboratories, Richmond Calif.), and were incubated in SRBC-absorbed guinea pig complement for one hour after a 1.5 hour incubation without complement.

Series [2] has as its system CBA/CaJ mouse spleen cells. Put plainly: Primary humoral response to SRBC, immunocompetent CBA/CaJ spleen cells (comparison in FIG. 2). In kind it is cell-based. The source says:
(§2) FIG. 2 is a graph that illustrates the in vitro reconstitution of the primary humoral immune response to a specific antigen, SRBC, in cultured immunodeficient CBA/N mouse spleen cells (dotted line) obtained by contacting those cells with an aqueous composition containing 7a8oGuo, in the further presence of SRBC. A similar study using spleen cells from immunocompetent CBA/CaJ mice (solid line) is also shown in the graph for comparison. The points on each line represent the PFC value obtained in the presence of the indicated amount of 7a8oGuo plus SRBC. The ordinate and abscissa are as in FIG. 1. Further details of this study are provided hereinafter.
(§3) Cultures of spleen cells from male and female homzygous CBA/N and male mice heterozygous for the CBA/N gene, called the xid gene, (male mice bear the X chromosome) was prepared as described in the Materials and Methods Section. 0.1 Milliters of a 0.1 percent (v/v) SRBC suspension alone or the SRBC suspension plus incremental amounts of 7a8oGuo were added to the cultures, using 5×10^6 cells/ml. Direct anti-SRBC […] per culture were assessed after 4 days of culture.
The results of this study comparing cells from CBA/N mice with a preparation of spleen cells from CBA/CaJ mice, are shown in FIG. 2.

Series [3] relates to murine lymphocytes (sheep red blood cells as antigen). The series is described as follows: Antigen-specific adjuvanticity: direct anti-SRBC plaque forming cells, murine system. It counts as cell-based, mouse.
From the text: ^1 Adjuvanticities against sheep red blood cells [SRBC] measured in
direct plaqueforming cells per culture of lymphocytes from the mouse
strains shown. Details of the procedure are provided in the Materials and
Methods Section. Standard errors from the enumerated mean values are show
A large number of comparisons of adjuvanticity using human and murine lymphocytes as the source of leukocytes have been carried out using compounds of the present invention, as well as with new compounds excluded from the present invention. […] Interstudy comparisons are however useful for showing trends and large differences. Tables 5, 6 and 7, hereinafter, provide exemplary data from such studies in which only the activity at the peak concentration is shown for each compound and the results for the controls are omitted.
Lymphocyte cultures. The serum-containing culture medium water prepared to contain the following per 100 milliliters: 91.9 milliliters RPMI 1640 (Flow Laboratories, Inc., Rockville, Md.), 0.1 milliliters of 100×glutamine, 1.0 milliliter of 100×sodium pyruvate, 1 0 milliliter of 50×nonessential amino acids, 1.0 milliliter of water containing 10^4 units of penicillin G and 10^4 micrograms of streptomycin, and 5.0 milliliters of a supportive lot of fetal calf serum (FCS). These ingredients were admixed to apparent homogeneity. Spleen cell suspensions and populations enriched for splenic B cells were prepared as described in Goodman et al., J. Immunol., 121:1905 (1978).
For evaluation of the primary humoral immune response to sheep erythrocytes (SRBC), 5×10^6 to 10^7 murine spleen cells were cultured in 1.0 milliliter of 5% FCS-containing medium for 4 or 5 days in the presence and absence of immunogen. Cells were incubated in culture trays (Costar, Cambridge, Mass.) at 37° C. in a humidified atmosphere of 10% CO2 in air using tissue culture boxes (CBS Scientific, Del Mar, Calif.) that were rocked at a frequency of 7 cycles per minute. Pooled SRBC are available from the Colorado Serum Co., Denver Colo.
as §1

Series [4] relates to CBA/CaJ thymocytes (irradiated BDF1 splenocyte stimulators). Put plainly: T cell proliferation in mixed leukocyte cultures, CBA/CaJ thymocytes. It counts as cell-based, mouse. The following applies: Study 4, responder +, stimulator +. An excerpt: A third and fourth study utilized thymocytes from CBA/CaJ mice as the stimulated (responder) cells, and irradiated BDFl mouse spleen cells as the stimulator cells. Two guanosine derivatives of the present invention, 7a8MGuo and 7a8oGuo, were used for these studies, with 8MGuo serving as positive control for one of the studies.
However, in the presence of interleukin-2 (IL-2), those cells develop responsiveness to allogeneic stimulation. The present studies utilizing thymocytes were therefore carried out in the presence of a co-stimulating amount of IL-2.
^1 Plus signs (+) are utilized to indicate the presence of the
^3 Allogeneic cells used to costimulate proliferation, after exposure
T Helper Cell Activation. 1.5×10^5 viable spleen cells from SJL mice or CBA/CaJ mouse thymocytes were cultured with or without an equal number of irradiated (2500 rads) spleen cells from CBA/CaJ or BDFl mice respectively, in 0.2 ml of culture medium in the presence of incremental concentrations of the exemplary 7,8-disubstituted guanine derivatives. The lymphocyte culture medium utilized was that described before, and was further supplemented with 2-mercaptoethanol to a final concentration of 50 uM. Thymocyte cultures also contained 10 percent (v/v) of a concanavalin A-conditioned rat spleen cell medium sold under the name Rat T Cell Monoclone by Collaborative Research. Following 90 hours of culture, one microCurie [^3 H]TdR per culture was admixed, and the resulting culture was maintained for a further six hour time period.
The cultures were harvested with a Brandel cell harvester (M24V, Biological Research and Development Laboratories, Rockville, Md.) onto glass fiber filter disks. Filter disks were transferred to plastic scintillation vials, covered with liquid scintillation cocktail, and counted in a Beckman LS5700 liquid scintillation counter.

A further series in a line: physchem. In kind it is physicochemical, human. An excerpt:
Solubilities in urine could be expected to be lower than those for water due to the relatively higher salt content in urine than is found in water.
Each sample was filtered through a 5 micron pore-sized filter, diluted as necessary with the HPLC mobile phase, and then quantified by HPLC.

The next series has as its system murine spleen cells. Put plainly: Mitogenicity: [3H]TdR uptake, murine system. In kind it is cell-based, mouse. Conditions: Table 4.
A further series relates to CBA/N mouse spleen cells. The series is described as follows: In vitro reconstitution of primary humoral immune response to SRBC, immunodeficient CBA/N spleen cells (FIG. 2). It counts as cell-based.
From the text: as §2, §3

The structures appear in SMILES notation. In brackets after ≈: the same amount, converted by molar mass.

From the text for murine spleen cells: ^1 Mitogenicity measured by the uptake of [^3 H]TdR
(tritiumlabeled thymidine deoxyribonucleoside) as determined by measuring
counts per minute (cpm) per cell culture using the conditions discussed i

`C=CCn1c(=O)n([C@@H]2O[C@H](CO)[C@@H](O)[C@H]2O)c2nc(N)[nH]c(=O)c21` [7a8oGuo, 7-(2-Propenyl)-8-oxoguanosine]: the “Peak Direct anti-SRBC PFC/Culture” value in series [1] (Table 7, first group, person a) is recorded as 3038 ± 288 PFC/Culture; in series [1] (Table 7, first group, person b), 9250 ± 1010 PFC/Culture; in series [1] (Table 7, first group, person c), 4831 ± 270 PFC/Culture; in series [1] (Table 7, second group, person a), 477 PFC/Culture; in series [1] (Table 7, second group, person b), 10,313 PFC/Culture; in series [1] (Table 7, second group, person c) it was 4413 PFC/Culture. Also, the “Peak Direct anti-SRBC PFC/Culture” value in series [3] (Table 5, murine system, at peak concentration) is 1827 PFC/Culture. Moreover, the “Average 1 Log Plaque Values” in series [1] (Table 9, human, * = single study) was 22,640 ± 4187 per micromole; in series [3] (Table 9, murine, * = single study), 98,237 ± 42,041 per micromole. For the same compound, the “peak adjuvanticity values greater as compared to 7m8oGuo” value in series [1] (human system (Table 3)) is listed as “about 100%”. Further, the “concentration giving the similar PFC/culture values” in series [2] was 10^-5 M; with CBA/N mouse spleen cells, 30 µM. Also, in series [3] (Table 8, 1 × 10^-5 M), the “Direct Anti-SRBC PFC/Culture” value was determined as 1387 PFC/Culture. Besides, the “[3H] TdR Uptake” value is listed as 10,000 ± 800 counts per minute in series [4] (10^-4 M); 8000 ± 300 counts per minute in series [4] (10^-5 M); 8300 ± 300 counts per minute in series [4] (10^-6 M); 59,150 ± 420 cpm/culture with murine spleen cells (3 × 10^-4 M); 51,340 ± 1050 cpm/culture with murine spleen cells (10^-3 M); 39,830 ± 780 cpm/culture in the series on murine spleen cells (10^-4 M). Besides, the “solubility in human urine, in words” value in the series “physchem” is given as “about a three-fold greater solubility than did 7m8oGuo”. Besides, the solubility at 18 h in “physchem” (human, urine) came to 16.3 mg/mL (≈ 48 mM).
